Measurements published in ChEMBL document CHEMBL5528026, “Structural modification of C2-substituents on 1,4-bis(arylsulfonamido)benzene or naphthalene-N,N'-diacetic acid derivatives as potent inhibitors of the Keap1-Nrf2 protein-protein interaction” (Eur J Med Chem, 2024).

Tests used:
Keap1/Nrf2 [1] = target: T1, Keap1/Nrf2 (Homo sapiens, UniProt Q14145); test: (§1) Inhibition of Keap1-Nrf2 protein-protein interaction (unknown origin) assessed as inhibition constant by TR-FRET assay
Keap1/Nrf2 [2] = target: T1, Keap1/Nrf2; test: Inhibition of Keap1-Nrf2 protein-protein interaction (unknown origin) by fluorescence polarization assay
Keap1/Nrf2 [3] = target: T2, Keap1/Nrf2 (Homo sapiens, UniProt Q16236+Q14145); test: Inhibition of Keap1-Nrf2 protein-protein interaction in human NCM460D cells assessed as fold induction at 1 to 100 uM in NQO1 mRNA level incubated for 24 hrs by RT-qPCR analysis; format: cell-based; conditions: dose 1-100 µM
Target sequence in this assay (Q14145 whole entry, looked up): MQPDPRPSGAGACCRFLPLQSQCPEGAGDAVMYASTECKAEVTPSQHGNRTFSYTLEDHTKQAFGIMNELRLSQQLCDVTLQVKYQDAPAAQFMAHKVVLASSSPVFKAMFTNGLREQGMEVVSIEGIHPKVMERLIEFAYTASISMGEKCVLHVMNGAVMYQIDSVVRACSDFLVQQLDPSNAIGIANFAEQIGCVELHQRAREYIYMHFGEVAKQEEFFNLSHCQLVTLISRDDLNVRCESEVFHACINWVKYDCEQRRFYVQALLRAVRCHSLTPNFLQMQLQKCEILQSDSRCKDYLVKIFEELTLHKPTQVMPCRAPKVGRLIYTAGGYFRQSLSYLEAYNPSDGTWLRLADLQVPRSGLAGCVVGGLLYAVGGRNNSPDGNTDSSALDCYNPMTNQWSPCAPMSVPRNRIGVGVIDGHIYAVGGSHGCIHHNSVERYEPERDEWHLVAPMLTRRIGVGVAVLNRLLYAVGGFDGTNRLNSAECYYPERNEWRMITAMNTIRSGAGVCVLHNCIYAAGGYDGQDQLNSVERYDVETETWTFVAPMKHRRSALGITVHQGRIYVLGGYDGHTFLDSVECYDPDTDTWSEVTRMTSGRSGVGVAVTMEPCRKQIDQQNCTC
Target sequence in this assay (Q16236 whole entry, looked up): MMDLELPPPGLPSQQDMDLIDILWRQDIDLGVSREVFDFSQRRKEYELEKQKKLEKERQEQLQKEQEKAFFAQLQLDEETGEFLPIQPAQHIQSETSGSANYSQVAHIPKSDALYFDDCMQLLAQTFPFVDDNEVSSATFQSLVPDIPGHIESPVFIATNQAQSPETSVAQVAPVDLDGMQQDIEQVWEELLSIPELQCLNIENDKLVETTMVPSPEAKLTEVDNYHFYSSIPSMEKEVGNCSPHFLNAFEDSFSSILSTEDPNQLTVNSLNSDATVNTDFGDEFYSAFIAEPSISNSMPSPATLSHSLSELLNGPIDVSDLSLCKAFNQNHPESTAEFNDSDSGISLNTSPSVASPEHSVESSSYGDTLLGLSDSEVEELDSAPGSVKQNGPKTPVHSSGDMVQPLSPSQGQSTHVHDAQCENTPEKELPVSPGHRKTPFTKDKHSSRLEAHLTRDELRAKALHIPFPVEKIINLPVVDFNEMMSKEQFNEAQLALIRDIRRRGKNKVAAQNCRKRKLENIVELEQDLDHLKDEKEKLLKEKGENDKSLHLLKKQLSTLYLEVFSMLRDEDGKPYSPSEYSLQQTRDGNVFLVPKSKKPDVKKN

Keap1/Nrf2 [4] = target: T1, Keap1/Nrf2; test: Inhibition of Keap1-Nrf2 protein-protein interaction (unknown origin) assessed as inhibition constant by fluorescence polarization assay
Keap1/Nrf2 [5] = target: T2, Keap1/Nrf2; test: as §1
Target sequence in this assay (Q16236 whole entry): as the sequence (Q16236 whole entry, looked up) above
Target sequence in this assay (Q14145 whole entry): as the sequence (Q14145 whole entry, looked up) above

Keap1/Nrf2 [6] = target: T1, Keap1/Nrf2; test: Inhibition of Keap1-Nrf2 protein-protein interaction (unknown origin) by TR-FRET assay

T1 sequence (Q16236 whole entry): as the sequence (Q16236 whole entry, looked up) above
T1 sequence (Q14145 whole entry): as the sequence (Q14145 whole entry, looked up) above

Ki (Keap1/Nrf2 [1]) [nM] | IC50 (Keap1/Nrf2 [2]) [nM] | Ki (Keap1/Nrf2 [4]) [nM] | SMILES | further results
1570 | 7680 | – | COc1ccc(S(=O)(=O)N(CC(=O)O)c2ccc(N(CC(=O)O)S(=O)(=O)c3ccc(OC)cc3)c(OCC(=O)Nc3ccccc3)c2)cc1 | –
– | – | – | Cc1ccc(S(=O)(=O)N(CC(=O)O)c2cc(OCC(=O)O)c(N(CC(=O)O)S(=O)(=O)c3ccc(C)cc3)c3ccccc23)cc1 | FC (Keap1/Nrf2 [3]): 15
316 | 1610 | – | COc1ccc(S(=O)(=O)N(CC(=O)O)c2ccc(N(CC(=O)O)S(=O)(=O)c3ccc(OC)cc3)c(C(=O)OCc3ccccc3)c2)cc1 | –
106 | 593 | – | COc1ccc(S(=O)(=O)N(CC(=O)O)c2ccc(N(CC(=O)O)S(=O)(=O)c3ccc(OC)cc3)c(OCC(=O)c3ccccc3)c2)cc1 | –
351 | 1780 | – | COc1ccc(S(=O)(=O)N(CC(=O)O)c2ccc(N(CC(=O)O)S(=O)(=O)c3ccc(OC)cc3)c(OC(=O)c3ccccc3)c2)cc1 | –
500 | 2500 | – | COc1ccc(S(=O)(=O)N(CC(=O)O)c2ccc(N(CC(=O)O)S(=O)(=O)c3ccc(OC)cc3)c(OCCN3CCOCC3)c2)cc1 | –
– | 565 | 100 | Cc1ccc(S(=O)(=O)N(CC(=O)O)c2ccc(N(CC(=O)O)S(=O)(=O)c3ccc(C)cc3)c(CCC(=O)O)c2)cc1 | –
– | 408 | 68 | Cc1ccc(S(=O)(=O)N(CC(=O)O)c2ccc(N(CC(=O)O)S(=O)(=O)c3ccc(C)cc3)c(OCc3nnn[nH]3)c2)cc1 | –
66.1 | 399 | – | COc1ccc(S(=O)(=O)N(CC(=O)O)c2ccc(N(CC(=O)O)S(=O)(=O)c3ccc(OC)cc3)c(OCC(=O)N3CCOCC3)c2)cc1 | –
– | 1780 | 351 | Cc1ccc(S(=O)(=O)N(CC(=O)O)c2ccc(N(CC(=O)O)S(=O)(=O)c3ccc(C)cc3)c(NCC(=O)O)c2)cc1 | –
82 | – | – | COc1ccc(S(=O)(=O)N(CC(=O)O)c2ccc(N(CC(=O)O)S(=O)(=O)c3ccc(OC)cc3)c(OS(=O)(=O)Cc3ccccc3)c2)cc1 | –
78.3 | – | – | COc1ccc(S(=O)(=O)N(CC(=O)O)c2ccc(N(CC(=O)O)S(=O)(=O)c3ccc(OC)cc3)c(OS(=O)(=O)c3ccc(-c4ccccc4)cc3)c2)cc1 | –
– | 228 | 30.6 | Cc1ccc(S(=O)(=O)N(CC(=O)O)c2ccc(N(CC(=O)O)S(=O)(=O)c3ccc(C)cc3)c(OCCN3C(=O)c4ccccc4C3=O)c2)cc1 | –
74.2 | 439 | – | COc1ccc(S(=O)(=O)N(CC(=O)O)c2ccc(N(CC(=O)O)S(=O)(=O)c3ccc(OC)cc3)c(OS(=O)(=O)c3ccccc3)c2)cc1 | –
– | – | – | Cc1ccc(S(=O)(=O)N(CC(=O)O)c2ccc(N(CC(=O)O)S(=O)(=O)c3ccc(C)cc3)c(O[C@H](C)C(=O)O)c2)cc1 | Ki (Keap1/Nrf2 [5]): 41.4 nM
– | 641 | 116 | Cc1ccc(S(=O)(=O)N(CC(=O)O)c2ccc(N(CC(=O)O)S(=O)(=O)c3ccc(C)cc3)c(OCC(=O)N3CCOCC3)c2)cc1 | –
– | 407 | 67.6 | Cc1ccc(S(=O)(=O)N(CC(=O)O)c2ccc(N(CC(=O)O)S(=O)(=O)c3ccc(C)cc3)c(OS(=O)(=O)c3c(C)cc(C)cc3C)c2)cc1 | –
452 | 2260 | – | COc1ccc(S(=O)(=O)N(CC(=O)O)c2ccc(N(CC(=O)O)S(=O)(=O)c3ccc(OC)cc3)c(OCC(=O)N3CCN(C)CC3)c2)cc1 | –
780 | 3850 | – | COc1ccc(S(=O)(=O)N(CC(=O)O)c2ccc(N(CC(=O)O)S(=O)(=O)c3ccc(OC)cc3)c(C(=O)Oc3ccccc3)c2)cc1 | –
9.1 | 69.3 | ~1 | Cc1ccc(S(=O)(=O)N(CC(=O)O)c2cc(CCC(=O)O)c(N(CC(=O)O)S(=O)(=O)c3ccc(C)cc3)c3ccccc23)cc1 | IC50 (Keap1/Nrf2 [6]): 22.3 nM; FC (Keap1/Nrf2 [3]): 8
50.7 | – | – | COc1ccc(S(=O)(=O)N(CC(=O)O)c2ccc(N(CC(=O)O)S(=O)(=O)c3ccc(OC)cc3)c(OS(=O)(=O)c3c(C)cc(C)cc3C)c2)cc1 | –
141 | 760 | – | COc1ccc(S(=O)(=O)N(CC(=O)O)c2ccc(N(CC(=O)O)S(=O)(=O)c3ccc(OC)cc3)c(OCC(=O)N3CCC(c4ccccc4)CC3)c2)cc1 | –
32.2 | 136 | 11.6 | Cc1ccc(S(=O)(=O)N(CC(=O)O)c2ccc(N(CC(=O)O)S(=O)(=O)c3ccc(C)cc3)c(O[C@@H](C)C(=O)O)c2)cc1 | IC50 (Keap1/Nrf2 [6]): 72.2 nM
– | – | 76.3 | Cc1ccc(S(=O)(=O)N(CC(=O)O)c2ccc(N(CC(=O)O)S(=O)(=O)c3ccc(C)cc3)c(OCc3ccc(F)cc3)c2)cc1 | –
